Assay results from ChEMBL document CHEMBL4715913, “Discovery of benzo[f]pyrido[4,3-b][1,4]oxazepin-10-one derivatives as orally available bromodomain and extra-terminal domain (BET) inhibitors with efficacy in an in vivo psoriatic animal model” (Bioorg Med Chem, 2021).
Active and inactive are the calls of the source. The calls are words filed in the database; no cut-off is given here.

Columns and labels:
[1] = molecular target: T1, Bromodomain-containing protein 4 (Homo sapiens, UniProt O60885); assay: Inhibition of BRD4-BD1 (unknown origin) by TR-FRET assay
[2] = tested on: PBMC; assay: Inhibition of IL-6 production in LPS-induced human PBMC preincubated for 1 hr followed by LPS-stimulation and measured after 20 hrs by magnetic beads technique based assay; format: functional, tissue-based; details: time 21.0 hrs
[3] = molecular target: T2, Mitogen-activated protein kinase 7 (Homo sapiens, UniProt Q13164); assay: Inhibition of recombinant human ERK5 using myelin basic protein as substrate by [gamm33P]ATP based HotSpot radiometric assay
T2 sequence (Q13164 whole entry): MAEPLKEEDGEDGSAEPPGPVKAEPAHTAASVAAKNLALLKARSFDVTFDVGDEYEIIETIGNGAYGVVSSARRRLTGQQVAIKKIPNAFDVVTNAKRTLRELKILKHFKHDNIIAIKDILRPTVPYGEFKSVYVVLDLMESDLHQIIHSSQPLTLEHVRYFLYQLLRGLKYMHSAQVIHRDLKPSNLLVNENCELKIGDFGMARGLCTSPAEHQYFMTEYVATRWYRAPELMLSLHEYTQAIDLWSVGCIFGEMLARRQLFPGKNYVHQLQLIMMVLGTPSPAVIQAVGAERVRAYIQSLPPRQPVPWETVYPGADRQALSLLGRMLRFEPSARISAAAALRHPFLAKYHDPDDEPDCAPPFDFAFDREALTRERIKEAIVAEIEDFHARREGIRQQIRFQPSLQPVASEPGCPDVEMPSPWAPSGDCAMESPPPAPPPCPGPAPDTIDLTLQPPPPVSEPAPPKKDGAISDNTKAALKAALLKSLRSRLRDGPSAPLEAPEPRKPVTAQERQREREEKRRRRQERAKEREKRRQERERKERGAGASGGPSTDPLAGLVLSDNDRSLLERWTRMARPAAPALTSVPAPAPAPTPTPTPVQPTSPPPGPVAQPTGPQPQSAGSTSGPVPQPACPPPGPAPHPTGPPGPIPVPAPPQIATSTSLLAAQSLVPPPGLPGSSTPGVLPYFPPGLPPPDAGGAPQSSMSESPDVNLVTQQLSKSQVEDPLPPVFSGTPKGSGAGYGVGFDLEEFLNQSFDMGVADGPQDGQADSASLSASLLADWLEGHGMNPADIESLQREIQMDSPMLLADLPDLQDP

[4] = molecular target: T1, Bromodomain-containing protein 4; assay: Inhibition of BRD4 in human PBMC assessed as reduction in LPS-induced TNFalpha secretion preincubated for 1 hr followed by LPS-stimulation and measured after 20 hrs by magnetic beads technique based assay
[5] = tested on: PBMC; assay: Inhibition of MCP-1 production in LPS-induced human PBMC preincubated for 1 hr followed by LPS-stimulation and measured after 20 hrs by magnetic beads technique based assay; format: functional, tissue-based; details: time 21.0 hrs
[6] = Stability of compound in human liver microsomes assessed as parent compound remaining after 1 hr
[7] = molecular target: T3, Voltage-gated inwardly rectifying potassium channel KCNH2 (Homo sapiens, UniProt Q12809); assay: Inhibition of human ERG stably expressed in CHO cells at holding potential of -80 mV incubated for 12 mins
T3 sequence (Q12809 whole entry): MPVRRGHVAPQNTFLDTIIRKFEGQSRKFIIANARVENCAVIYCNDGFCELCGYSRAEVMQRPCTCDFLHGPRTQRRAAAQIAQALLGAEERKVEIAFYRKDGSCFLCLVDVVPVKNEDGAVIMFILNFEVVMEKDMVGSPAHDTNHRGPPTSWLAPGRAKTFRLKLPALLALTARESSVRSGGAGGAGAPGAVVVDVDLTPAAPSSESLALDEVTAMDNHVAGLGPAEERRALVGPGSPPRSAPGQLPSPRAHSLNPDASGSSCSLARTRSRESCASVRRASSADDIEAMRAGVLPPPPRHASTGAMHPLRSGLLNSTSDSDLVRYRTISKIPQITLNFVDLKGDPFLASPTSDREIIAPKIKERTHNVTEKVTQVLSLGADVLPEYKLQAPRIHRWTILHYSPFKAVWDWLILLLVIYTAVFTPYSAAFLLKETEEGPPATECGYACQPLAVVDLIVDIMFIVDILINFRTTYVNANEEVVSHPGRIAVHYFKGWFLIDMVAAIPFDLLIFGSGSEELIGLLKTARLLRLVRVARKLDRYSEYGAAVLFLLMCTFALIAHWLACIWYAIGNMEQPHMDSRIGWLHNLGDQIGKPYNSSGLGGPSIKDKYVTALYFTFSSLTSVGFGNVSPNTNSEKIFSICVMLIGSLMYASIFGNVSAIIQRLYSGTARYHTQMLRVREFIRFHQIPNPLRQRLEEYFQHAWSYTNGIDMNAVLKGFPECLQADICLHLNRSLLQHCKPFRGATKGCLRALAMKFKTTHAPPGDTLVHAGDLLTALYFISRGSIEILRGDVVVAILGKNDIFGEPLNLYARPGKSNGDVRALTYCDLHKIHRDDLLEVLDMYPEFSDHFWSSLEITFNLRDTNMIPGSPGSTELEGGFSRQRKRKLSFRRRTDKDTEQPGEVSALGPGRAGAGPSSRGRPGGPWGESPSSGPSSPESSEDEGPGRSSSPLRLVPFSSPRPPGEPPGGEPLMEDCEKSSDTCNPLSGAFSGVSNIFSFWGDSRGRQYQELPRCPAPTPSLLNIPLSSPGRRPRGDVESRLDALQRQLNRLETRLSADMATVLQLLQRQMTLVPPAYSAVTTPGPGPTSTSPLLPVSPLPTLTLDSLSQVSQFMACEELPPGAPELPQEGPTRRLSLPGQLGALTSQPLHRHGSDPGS

[8] = molecular target: T3, Voltage-gated inwardly rectifying potassium channel KCNH2; assay: Inhibition of human ERG
[9] = molecular target: T1, Bromodomain-containing protein 4; assay: Binding affinity to BRD4-BD1 (unknown origin)
[10] = molecular target: T2, Mitogen-activated protein kinase 7; assay: Inhibition of ERK5 (unknown origin)
[11] = Dissociation constant, pKa of compound; format: physicochemical
[12] = molecular target: T1, Bromodomain-containing protein 4; assay: Inhibition of BRD4-BD1 (unknown origin)
[13] = molecular target: T4, Bromodomain testis-specific protein (Homo sapiens, UniProt Q58F21); assay: Binding affinity to human partial length BRDT-BD1 (N21 to E137 residues) expressed in bacterial expression system by BROMOscan method
[14] = organism: Homo sapiens; assay: Selectivity ratio of Kd for binding affinity to human partial length EP300 (A1040 to G1161 residues) expressed in bacterial expression system to Kd for binding affinity to human partial length BRDT-BD1 (N21 to E137 residues) expressed in bacterial expression system
[15] = molecular target: T5, Bromodomain-containing protein 3 (Homo sapiens, UniProt Q15059); assay: Binding affinity to human partial length BRD3-BD1 (P24 to E144 residues) expressed in bacterial expression system by BROMOscan method
T5 sequence (Q15059 whole entry, the tested form may be a part): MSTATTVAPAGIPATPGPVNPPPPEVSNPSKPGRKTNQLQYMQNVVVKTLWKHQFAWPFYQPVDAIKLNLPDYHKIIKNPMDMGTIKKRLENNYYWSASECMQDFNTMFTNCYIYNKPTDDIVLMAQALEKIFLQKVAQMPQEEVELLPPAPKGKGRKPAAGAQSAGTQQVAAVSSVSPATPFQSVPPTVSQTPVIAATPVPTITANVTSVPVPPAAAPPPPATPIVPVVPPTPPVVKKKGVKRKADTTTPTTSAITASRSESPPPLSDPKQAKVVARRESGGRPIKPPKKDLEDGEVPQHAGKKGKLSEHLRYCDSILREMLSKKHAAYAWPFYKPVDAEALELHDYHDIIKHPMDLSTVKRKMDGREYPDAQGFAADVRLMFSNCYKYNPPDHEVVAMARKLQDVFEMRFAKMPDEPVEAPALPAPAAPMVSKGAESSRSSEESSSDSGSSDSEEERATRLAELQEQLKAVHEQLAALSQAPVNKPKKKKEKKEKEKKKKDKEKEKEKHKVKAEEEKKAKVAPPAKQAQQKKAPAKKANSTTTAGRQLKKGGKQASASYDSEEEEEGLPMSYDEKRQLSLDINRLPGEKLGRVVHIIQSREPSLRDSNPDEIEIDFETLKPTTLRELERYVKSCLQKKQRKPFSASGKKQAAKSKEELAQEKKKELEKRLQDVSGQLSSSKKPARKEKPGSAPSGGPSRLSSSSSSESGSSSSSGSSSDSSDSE

[16] = organism: Homo sapiens; assay: Selectivity ratio of Kd for binding affinity to human partial length EP300 (A1040 to G1161 residues) expressed in bacterial expression system to Kd for binding affinity to human partial length BRD4-BD1 (N44 to E168 residues) expressed in bacterial expression system
[17] = molecular target: T6, Bromodomain-containing protein 2 (Homo sapiens, UniProt P25440); assay: Binding affinity to human partial length BRD2-BD1 (K71 to N194 residues) expressed in bacterial expression system by BROMOscan method
T6 sequence (P25440 whole entry, the tested form may be a part): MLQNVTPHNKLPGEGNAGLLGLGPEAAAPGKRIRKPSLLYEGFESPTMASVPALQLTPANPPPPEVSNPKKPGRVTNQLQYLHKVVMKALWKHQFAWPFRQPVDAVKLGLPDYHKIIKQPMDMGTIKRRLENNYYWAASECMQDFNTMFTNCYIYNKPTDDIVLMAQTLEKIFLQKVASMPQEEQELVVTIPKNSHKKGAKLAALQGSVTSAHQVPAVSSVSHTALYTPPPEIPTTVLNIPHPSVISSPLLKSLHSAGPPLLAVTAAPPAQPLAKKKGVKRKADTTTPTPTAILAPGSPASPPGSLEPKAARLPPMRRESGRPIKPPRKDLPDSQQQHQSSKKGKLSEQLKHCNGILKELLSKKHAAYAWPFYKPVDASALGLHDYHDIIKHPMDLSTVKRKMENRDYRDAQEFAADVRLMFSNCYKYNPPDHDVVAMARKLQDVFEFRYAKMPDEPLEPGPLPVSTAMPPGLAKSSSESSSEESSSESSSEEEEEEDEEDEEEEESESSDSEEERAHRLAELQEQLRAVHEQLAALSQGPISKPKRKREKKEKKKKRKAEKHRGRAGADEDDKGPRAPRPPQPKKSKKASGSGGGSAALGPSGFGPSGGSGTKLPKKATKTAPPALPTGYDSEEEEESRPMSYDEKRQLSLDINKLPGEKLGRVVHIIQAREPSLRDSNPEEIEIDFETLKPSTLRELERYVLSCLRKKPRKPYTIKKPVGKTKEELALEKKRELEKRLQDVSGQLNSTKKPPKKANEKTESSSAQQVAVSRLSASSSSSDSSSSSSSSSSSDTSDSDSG

[18] = organism: Homo sapiens; assay: Selectivity ratio of Kd for binding affinity to human partial length EP300 (A1040 to G1161 residues) expressed in bacterial expression system to Kd for binding affinity to human partial length BRD2-BD1 (K71 to N194 residues) expressed in bacterial expression system
[19] = organism: Homo sapiens; assay: Selectivity ratio of Kd for binding affinity to human partial length CREBBP (R1081 to G1197 residues) expressed in bacterial expression system to Kd for binding affinity to human partial length BRD2-BD1 (K71 to N194 residues) expressed in bacterial expression system
[20] = Toxicity in imiquimod-induced Harlan Balb/c mouse model of psoriasis assessed as effect on body weight at 3 to 30 mg/kg, po BID for 7 days; format: organism-based; details: in vivo, 168 h, dose 3-30 mg/kg, time 7 day
[21] = molecular target: T1, Bromodomain-containing protein 4; assay: Binding affinity to human partial length BRD4-BD2 (K333 to E460 residues) expressed in bacterial expression system by BROMOscan method
[22] = tested on: Mus musculus; assay: Protection against imiquimod-induced po dosed Harlan Balb/c mouse model of psoriasis assessed as decrease in ear thickness administered BID for 7 days measured on day 8 by dial gauge micrometer analysis; format: functional, organism-based; details: dose 3-30 mg/kg, time 7.0 day
[23] = organism: Homo sapiens; assay: Selectivity ratio of Kd for binding affinity to human partial length EP300 (A1040 to G1161 residues) expressed in bacterial expression system to Kd for binding affinity to human partial length BRD2-BD2 (E348 to D455 residues) expressed in bacterial expression system
[24] = organism: Homo sapiens; assay: Selectivity ratio of Kd for binding affinity to human partial length EP300 (A1040 to G1161 residues) expressed in bacterial expression system to Kd for binding affinity to human partial length BRD3-BD2 (G306 to P416 residues) expressed in bacterial expression system
[25] = organism: Homo sapiens; assay: Selectivity ratio of Kd for binding affinity to human partial length CREBBP (R1081 to G1197 residues) expressed in bacterial expression system to Kd for binding affinity to human partial length BRD4-BD1 (N44 to E168 residues) expressed in bacterial expression system
[26] = organism: Homo sapiens; assay: Selectivity ratio of Kd for binding affinity to human partial length CREBBP (R1081 to G1197 residues) expressed in bacterial expression system to Kd for binding affinity to human partial length BRD4-BD2 (K333 to E460 residues) expressed in bacterial expression system
[27] = molecular target: T4, Bromodomain testis-specific protein; assay: Binding affinity to human partial length BRDT-BD2 (K250 to E382 residues) expressed in bacterial expression system by BROMOscan method
[28] = organism: Homo sapiens; assay: Selectivity ratio of Kd for binding affinity to human partial length CREBBP (R1081 to G1197 residues) expressed in bacterial expression system to Kd for binding affinity to human partial length BRD3-BD1 (P24 to E144 residues) expressed in bacterial expression system
[29] = molecular target: CREB-binding protein (Homo sapiens, UniProt Q92793); assay: Binding affinity to human partial length CREBBP (R1081 to G1197 residues) expressed in bacterial expression system by BROMOscan method
[30] = molecular target: T5, Bromodomain-containing protein 3; assay: Binding affinity to human partial length BRD3-BD2 (G306 to P416 residues) expressed in bacterial expression system by BROMOscan method
[31] = organism: Homo sapiens; assay: Selectivity ratio of Kd for binding affinity to human partial length EP300 (A1040 to G1161 residues) expressed in bacterial expression system to Kd for binding affinity to human partial length BRDT-BD2 (K250 to E382 residues) expressed in bacterial expression system
[32] = organism: Homo sapiens; assay: Selectivity ratio of Kd for binding affinity to human partial length EP300 (A1040 to G1161 residues) expressed in bacterial expression system to Kd for binding affinity to human partial length BRD4-BD2 (K333 to E460 residues) expressed in bacterial expression system
[33] = organism: Homo sapiens; assay: Selectivity ratio of Kd for binding affinity to human partial length CREBBP (R1081 to G1197 residues) expressed in bacterial expression system to Kd for binding affinity to human partial length BRD3-BD2 (G306 to P416 residues) expressed in bacterial expression system
[34] = organism: Homo sapiens; assay: Selectivity ratio of Kd for binding affinity to human partial length CREBBP (R1081 to G1197 residues) expressed in bacterial expression system to Kd for binding affinity to human partial length BRD2-BD2 (E348 to D455 residues) expressed in bacterial expression system
[35] = tested on: Mus musculus; assay: Protection against imiquimod-induced Harlan Balb/c mouse model of psoriasis assessed as decrease in ear thickness at 10 mg/kg, po administered BID for 7 days measured on day 8 by dial gauge micrometer analysis; format: functional, organism-based; details: time 7.0 day
[36] = molecular target: T1, Bromodomain-containing protein 4; assay: Binding affinity to human partial length BRD4-BD1 (N44 to E168 residues) expressed in bacterial expression system by BROMOscan method
[37] = organism: Homo sapiens; assay: Selectivity ratio of Kd for binding affinity to human partial length EP300 (A1040 to G1161 residues) expressed in bacterial expression system to Kd for binding affinity to human partial length BRD3-BD1 (P24 to E144 residues) expressed in bacterial expression system
[38] = organism: Homo sapiens; assay: Selectivity ratio of Kd for binding affinity to human partial length CREBBP (R1081 to G1197 residues) expressed in bacterial expression system to Kd for binding affinity to human partial length BRDT-BD2 (K250 to E382 residues) expressed in bacterial expression system
[39] = molecular target: T6, Bromodomain-containing protein 2; assay: Binding affinity to human partial length BRD2-BD2 (E348 to D455 residues) expressed in bacterial expression system by BROMOscan method
[40] = molecular target: Histone acetyltransferase p300 (Homo sapiens, UniProt Q09472); assay: Binding affinity to human partial length EP300 (A1040 to G1161 residues) expressed in bacterial expression system by BROMOscan method
[41] = organism: Homo sapiens; assay: Selectivity ratio of Kd for binding affinity to human partial length CREBBP (R1081 to G1197 residues) expressed in bacterial expression system to Kd for binding affinity to human partial length BRDT-BD1 (N21 to E137 residues) expressed in bacterial expression system

With `CN1C(=O)c2ccccc2N(C)c2cc(N[C@H]3CC[C@@H](O)CC3)ncc21` the IC50 [1] was 6910 nM, the inhibition [2] was “Active” and the IC50 [3] was 2230 nM. For the same compound, the EC50 [4] was 3070 nM and the inhibition [5] was “Active”.

In the case of `CCO[C@H]1CC[C@H](Nc2cc3c(cn2)N(C)C(=O)c2ccccc2N3C)CC1`, the IC50 [1] is reported as 9990 nM, the inhibition [2] is reported as “Active” and the IC50 [3] is reported as 81 nM. For the same compound, the EC50 [4] was 2740 nM and the inhibition [5] was “Active”.

For `CCO[C@@H]1CCCC[C@@H]1Nc1cc2c(cn1)N(C)C(=O)c1ccccc1N2C` (relative stereo), the IC50 [1] was 15400 nM, the inhibition [2] was “Active” and the IC50 [3] was over 10000 nM. For the same compound, the EC50 [4] was 2950 nM and the inhibition [5] was “Active”.

With `CN1C(=O)c2cccc(Cl)c2Oc2cc(N[C@H]3CC[C@H](O)CC3)ncc21` the IC50 [1] was 12800 nM, the inhibition [2] was “Active” and the IC50 [3] was 1050 nM. It also gave an EC50 [4] of 1170 nM, a remaining at 1 h [6] of 103% and an IC50 [7] of over 10000 nM. For the same compound, the inhibition [5] was “Active”.

With `CN1C(=O)c2ccccc2N(C)c2cc(N[C@H]3CC[C@H](O)CC3)ncc21` the IC50 [1] was 5990 nM, the inhibition [2] was “Active” and the IC50 [3] was 89 nM. The IC50 [8] was over 10000 nM, the Kd [9] was 130 nM and the IC50 [10] was 89 nM. For the same compound, the EC50 [4] was 2110 nM, the pKa [11] was 5.06 and the inhibition [5] was “Active”.

In the case of `CCOc1cc(C(=O)N2CCC(N3CCCC3)CC2)ccc1Nc1cc2c(cn1)N(C)C(=O)c1ccccc1N2C`, the inhibition [2] is reported as “Active”, the IC50 [8] is reported as 320 nM and the Kd [9] is reported as 22 nM. For the same compound, the IC50 [10] was 11 nM, the pKa [11] was 9.7 and the IC50 [12] was 1290 nM. The inhibition [5] was “Active”.

In the case of `CN1C(=O)c2ccccc2Sc2cc(N[C@H]3CC[C@H](O)CC3)ncc21`, the IC50 [1] is reported as over 30000 nM, the inhibition [2] is reported as “Active” and the inhibition [5] is reported as “Active”.

In the case of `CN1C(=O)c2c(F)cccc2Oc2cc(N[C@H]3CC[C@H](O)CC3)ncc21`, the Kd [13] is reported as 170 nM, the Selectivity ratio [14] is reported as 20 and the Kd [15] is reported as 52 nM. For the same compound, the Selectivity ratio [16] was 20, the Kd [17] was 71 nM and the Selectivity ratio [18] was 20. The Selectivity ratio [19] was 20, the IC50 [1] was 1270 nM and the inhibition [2] was “Active”. For the same compound, the Activity [20] was “Non-Toxic”, the Kd [21] was 72 nM and the IC50 [3] was 131 nM. For the same compound, the Activity [22] was “Dose-dependent effect”, the Selectivity ratio [23] was 20 and the Selectivity ratio [24] was 20. It also gave a Selectivity ratio [25] of 20, an EC50 [4] of 440 nM and a remaining at 1 h [6] of 100%. The Selectivity ratio [26] was 20, the Kd [27] was 220 nM and the IC50 [7] was over 10000 nM. The Selectivity ratio [28] was 20, the Kd [29] was 1900 nM and the Kd [30] was 140 nM. The Selectivity ratio [31] was 20, the Selectivity ratio [32] was 20 and the Selectivity ratio [33] was 20. The Selectivity ratio [34] was 20, the Activity [35] was “Active” and the Kd [36] was 78 nM. The Selectivity ratio [37] was 20, the Selectivity ratio [38] was 20 and the Kd [39] was 160 nM. The inhibition [5] was “Active”, the Kd [40] was 1200 nM and the Selectivity ratio [41] was 20.
